In publication PMC12691742, “Anti-Cancer Outcome of Glucocorticoid Receptor Transrepression by Synephrine Derivatives in Hematological Malignancies” (International Journal of Molecular Sciences, 2025):
Where two headings read alike, the source gives them in different places.

How the values were obtained:
GR = molecular target: T1, GR (Homo sapiens, UniProt P04150); assay: GR radioligand binding assay, competition with [3H]Dex in K562 cells
T1 construct: endogenous in cells; host or cells: K562
T1 sequence (P04150 1-777): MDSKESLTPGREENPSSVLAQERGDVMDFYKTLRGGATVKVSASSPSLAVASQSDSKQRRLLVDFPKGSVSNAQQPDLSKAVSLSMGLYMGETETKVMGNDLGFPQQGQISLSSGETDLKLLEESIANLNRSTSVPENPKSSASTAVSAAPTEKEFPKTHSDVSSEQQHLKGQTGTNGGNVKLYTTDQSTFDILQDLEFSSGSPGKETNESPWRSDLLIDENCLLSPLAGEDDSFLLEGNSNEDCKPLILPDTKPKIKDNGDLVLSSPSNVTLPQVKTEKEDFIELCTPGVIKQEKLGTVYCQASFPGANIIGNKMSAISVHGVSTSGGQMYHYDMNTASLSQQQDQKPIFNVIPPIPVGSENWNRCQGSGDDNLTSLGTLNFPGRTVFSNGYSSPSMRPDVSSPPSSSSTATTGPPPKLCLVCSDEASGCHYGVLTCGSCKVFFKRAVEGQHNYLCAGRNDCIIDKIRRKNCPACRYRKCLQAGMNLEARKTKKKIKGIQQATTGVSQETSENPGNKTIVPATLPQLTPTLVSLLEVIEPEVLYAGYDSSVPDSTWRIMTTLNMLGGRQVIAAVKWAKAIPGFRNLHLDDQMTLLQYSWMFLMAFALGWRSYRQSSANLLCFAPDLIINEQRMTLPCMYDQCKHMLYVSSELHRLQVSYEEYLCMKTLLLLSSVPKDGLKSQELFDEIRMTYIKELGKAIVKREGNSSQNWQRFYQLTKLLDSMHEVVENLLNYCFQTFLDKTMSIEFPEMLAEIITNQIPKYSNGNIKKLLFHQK
Method: (A,B). […] The stability of the complex was simulated using molecular dynamics in the GROMACS program. (C) GR binding affinity was estimated using a radioligand binding assay. […] Cell lysate radioactivity was measured using a RackBeta 1215 LC (LKB Wallac, Turku, Finland) spectrometer for 4 min. […] The experiments were performed in triplicate (n = 3).
After 90 min of incubation, the cells were washed twice by centrifugation in cold serum-free medium (1500 rpm, 5 min). The cells were then lysed with RIPA buffer (50 mM Tris (pH 8.0), 150 mM NaCl, 1 mM ethylenediaminetetraacetic acid, 0.1% sodium dodecyl sulfate, 0.5% sodium deoxycholate, 1% triton-X100, 10% glycerin, and protease inhibitor) for 20 min. Lysates were transferred to scintillation liquid, and radioactivity was measured using a RackBeta 1215 LC spectrometer for 4 min. […] IC50 was determined using GraphPad Prism software, Ver.7.0. […] “Top” meant the highest value in dpm and was equal to 100%, while the “bottom” was considered as the lowest value (0%). […] The IC50 values for each ligand were determined by plotting these curves. The experiments were performed in triplicate.

[1] = test system: NF-kB activity in Granta cells; assay: NF-kB.Luc reporter assay in Granta cells; format: cell-based; details: 5 h, 4S-C2 10 µM, 10S-E2 1 µM
Method: (§1) We analyzed GR TR function using an NF-kB.Luc reporter assay with the irritating inflammatory agent phorbol 13-acetate 12-myristate (TPA) as an inducer of NF-kB signaling and positive control.
Figure 4 Effects of synephrine derivatives on GR transrepression in Granta lymphoma and K562 leukemia cells. (A) K562 and Granta cells stably infected with the lentiviruses bearing the NF-kB luciferase reporter. Cells were incubated for 5 h with the solvent (control), TPA (5 ng/mL), 4S-C2 (10 µM), 8S-E3 (10 µM), 10S-E2 (1 µM), or 13S-G2 (1 µM). Luciferase activity was determined as described in the Materials and Methods section. (B) IL1-α and IL6 mRNA expression in K562 and Granta cells. Q-PCR results were normalized to the expression of the housekeeping gene RPL27 and are presented as the fold change compared to the control. The mean ± SD was calculated for three individual samples/condition (n = 3). Statistically significant differences compared to the control: * p < 0.05, ** p < 0.01.
Lentiviral stocks were generated using the lentiviral expression vector NF-kB. Luc was encoded with Firefly Luciferase reporters with the NF-kB-responsive promoter of minimal CMV promoter as a control (“System Bioscience”, Moutain View, CA, USA), along with packing plasmids GAG, REV, and VSVg. HEK-293T cells were transfected with the abovementioned plasmids using TurboFect reagent (“Thermo Scientific”, Waltham, MA, USA) according to the manufacturer’s protocol. […] The infection efficiency exceeded 90% (tracked by GFP fluorescence).
(§2) Cells (10^4 cells/well in a 24-well plate), stably expressing Firefly Luciferase under the NF-kB promoter, were treated for 5 h with TPA (12-O-tetradecanoylphorbol-13-acetate, Boston, MA, USA, 10 ng/mL), 4S-C2 (10 µM), 8S-E3 (10 µM), 10S-E2 (1 µM), 13S-G2 (1 µM), or the vehicle. Luciferase activity was measured as described using a commercial Luciferase Assay (“Promega”, Madison, WI, USA) and Luminometer TD 20/20 (“Turner Design Instruments”, San Jose, CA, USA). […]

[2] = test system: GR phosphorylated by Ser211 in K562 and Granta cells; assay: Western blot of nuclear phospho-GR (Ser211); format: cell-based; details: 10 h; Dex 10 µM, 4S-C2 50 µM, 8S-E3 50 µM, 10S-E2 15 µM, 13S-G2 25 µM
Method: (§3) Figure 3 Effects of synephrine derivatives on GR transactivation in Granta lymphoma and K562 leukemia cells. (A) Q-PCR analysis of FKBP51, GILZ, and DDIT4 mRNA expression in K562 and Granta cells. […] The Q-PCR results were normalized to the expression of the housekeeping gene RPL27 and are presented as fold changes compared to the control. The mean ± SD was calculated for three individual samples/condition (n = 3). Statistically significant differences compared to the control: * p < 0.05, ** p < 0.01. (B) The levels of the nuclear fraction of phospho-GR (Ser211) were determined using Western blot analysis (n = 3; characteristic images are presented in the figure). Histone H3 was used as a loading control.
Western blot analysis was performed as previously described. Proteins were resolved using SDS-PAGE. Membranes were blocked with 5% nonfat milk solution and then incubated with primary antibodies against phosphorylated GR (pGR, Ser211) (“Santa Cruz Biotechnology”, Santa Cruz, CA, USA) overnight at 4 °C. To verify equal protein loading and adequate transfer, the membranes were probed with Histone H3 antibodies (“Cell Signaling”, Boston, MA, USA). Goat anti-rabbit IgGs (“Jackson Immuno Research”, West Grove, PA, USA) were used as secondary antibodies. Signals were detected using ECL reagent and an ImageQuant LAS4000 system (“GE HealthCare”, Chicago, IL, USA). ImageJ 1.54h software was used for densitometry. The experiments were performed in triplicate.
7 K562, pGR nuclear 5 Granta, pGR nuclear
Supplementary Figure S 22. Quantification of Western blot analysis. K562 and Granta cells […]
μM) and 13S-G2 (25 μ M) for 10 h. Quantification of Western blot anal ysis of p- GR protein levels was done usin g Im a ge J f ree so ftwar e. Statisticall y significant diff eren ces as compared to control: […]

[3] = test system: NF-kB activity in K562 cells; assay: NF-kB.Luc reporter assay in K562 cells; format: cell-based; details: 5 h, 4S-C2 10 µM
Method: as §1
Figure 4 Effects of synephrine derivatives on GR transrepression in Granta lymphoma and K562 leukemia cells. (A) K562 and Granta cells stably infected with the lentiviruses bearing the NF-kB luciferase reporter. Cells were incubated for 5 h with the solvent (control), TPA (5 ng/mL), 4S-C2 (10 µM), 8S-E3 (10 µM), 10S-E2 (1 µM), or 13S-G2 (1 µM). Luciferase activity was determined as described in the Materials and Methods section. (B) IL1-α and IL6 mRNA expression in K562 and Granta cells. […] The mean ± SD was calculated for three individual samples/condition (n = 3). […]
Lentiviral stocks were generated using the lentiviral expression vector NF-kB. […] The infection efficiency exceeded 90% (tracked by GFP fluorescence).
as §2

[4] = test system: leukemia and lymphoma cells (Granta, K562); design: method as in PMID 39858397; details: leukemia and lymphoma cells; read-out: cell viability IC50; cited from earlier work
[5] = test system: FKBP51, GILZ, DDIT4 mRNA expression in K562 and Granta cells; assay: Q-PCR of GR transactivation marker genes; format: cell-based; details: 4 h (FKBP51, GILZ) or 24 h (DDIT4); Dex 10 µM, 10S-E2 0.1 µM; vs control
Source text: Q-PCR results were confirmed by Western blot analysis of the level of GR phosphorylated by Ser211, known as a crucial protein modification for GR TA realization because of its binding to short cysteine-rich fragments of the coactivator CREB-binding protein [41].
as §3
Total RNA isolation from cell cultures and murine bones, reverse transcription, and Q-PCR were performed as described in [36]. Primers were designed using NCBI Primer-BLAST https://www.ncbi.nlm.nih.gov/tools/primer-blast/, accessed on 25 August 2025 (Supplementary Table S1). Results were normalized to the expression of the housekeeping RPL27 и Rpl27 genes. The experiments were performed in triplicate.

Compound | IC50 (GR; K562 cells, 0.5 µM [3H]Dex, 90 min, n = 3) [µM] | effect on NF-kB activity [1] | GR phosphorylation level at Ser211 [2] | effect on NF-kB activity [3] | IC50 (GR) [µM] | IC50 [4] [µM] | expression of TA marker genes FKBP51, GILZ, DDIT4 [5]
CNCC(Cl)c1ccc(OC(C)=O)cc1 (stereo not drawn) [CpdA, reference compound] | 2.84 | – | – | – | – | – | –
CCCCCCNCC(O)c1ccc(OC)cc1 (stereo not drawn) [4S-C2, 2-(hexylamino)-1-(4-methoxyphenyl)ethanol] | – | significantly decreased | weak increase | induced it | 3.21 | – | –
CCCCCCNCC(O)c1ccc([N+](=O)[O-])cc1 (stereo not drawn) [13S-G2, 2-(hexylamino)-1-(4-nitrophenyl)ethanol] | – | – | weak increase | – | 0.69 | 13 to 26 | did not increase the expression
